Reference: patent US20230143604A1, “QW DOSING OF GIP RECEPTOR AGONIST PEPTIDE COMPOUNDS AND USES THEREOF” (TAKEDA PHARMACEUTICAL COMPANY LIMITED, priority 2020, published 2023)
Starred links: 1 amine or outer side, 2 acyl side, 3 side chain; linkers in the order of their positions; H or OH if unused. Non-standard residues stand in square brackets, D forms with d. Residues, ends and D or L forms follow the SMILES beside them. Groups on a side chain read outwards from the residue. *: point of attachment. C18 diacid = O=C(O)CCCCCCCCCCCCCCCCC(=O)*; γGlu = O=C(O)[C@H](CCC(=O)[*:2])N[*:1]; NMeY = CN[C@@H](Cc1ccc(O)cc1)C(=O)O; AEEA = NCCOCCOCC(=O)O; Aib = CC(C)(N)C(=O)O

Assay: physchem
Outline: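 3 mg of peptide treated with 100 μL portions of 200 mM phosphate buffer pH 7.4, sonicating/vortexing up to 1 min, with further buffer added until fully dissolved. Solubility then quantified by HPLC.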

[1] = pH 7.4, aqueous buffer, pH 7.4 Phosphate Buffer - Solubility, 200 mM Phosphate buffer pH 7.4
[2] = pH 7.4, solubility in phosphate buffer at pH 7.4, 200 mM phosphate buffer pH 7.4

Row | Compound | solubility (pH 7.4) | solubility (pH 7.4, aqueous buffer) | solubility [1] | solubility [2]
1 | CC[C@H](C)[C@H](NC(=O)[C@H](Cc1ccccc1)NC(=O)[C@@H](NC(=O)CNC(=O)[C@H](CCC(=O)O)NC(=O)C(C)(C)NC(=O)[C@H](Cc1ccc(O)cc1)NC)[C@@H](C)O)C(=O)N[C@@H](CO)C(=O)N[C@@H](CC(=O)O)C(=O)N[C@@H](Cc1ccc(O)cc1)C(=O)N[C@@H](CO)C(=O)N[C@H](C(=O)NC(C)(C)C(=O)N[C@@H](CC(C)C)C(=O)N[C@@H](CC(=O)O)C(=O)N[C@@H](CCCNC(=N)N)C(=O)NC(C)(C)C(=O)N[C@@H](C)C(=O)N[C@@H](CCC(N)=O)C(=O)NC(C)(C)C(=O)N[C@@H](CCCCNC(=O)COCCOCCNC(=O)COCCOCCNC(=O)CC[C@H](NC(=O)CC[C@H](NC(=O)CCCCCCCCCCCCCCCCC(=O)O)C(=O)O)C(=O)O)C(=O)N[C@@H](Cc1ccccc1)C(=O)N[C@H](C(=O)N[C@@H](CC(N)=O)C(=O)N[C@@H](Cc1c[nH]c2ccccc12)C(=O)N[C@@H](CC(C)C)C(=O)N[C@@H](CC(C)C)C(=O)N[C@@H](C)C(=O)N[C@@H](CCC(N)=O)C(=O)N[C@@H](CO)C(=O)N1CCC[C@H]1C(=O)NCC(=O)O)C(C)C)[C@@H](C)CC [Compound 85] (H-[NMeY][Aib]EGTFISDYSI[Aib]LDR[Aib]AQ[Aib]K([AEEA-AEEA-γGlu-γGlu-C18 diacid])FVNWLLAQSPG-OH) | ≥ 15 mg/mL | ≥ 30 mg/mL |  | 
2 | CC[C@H](C)[C@H](NC(=O)[C@H](CO)NC(=O)[C@H](Cc1ccc(O)cc1)NC(=O)[C@H](CC(=O)O)NC(=O)[C@H](CO)NC(=O)[C@@H](NC(=O)[C@H](Cc1ccccc1)NC(=O)[C@@H](NC(=O)CNC(=O)[C@H](CCC(=O)O)NC(=O)C(C)(C)NC(=O)[C@H](Cc1ccc(O)cc1)NC)[C@@H](C)O)[C@@H](C)CC)C(=O)N[C@@H](C)C(=O)N[C@@H](CC(C)C)C(=O)N[C@@H](CC(=O)O)C(=O)N[C@@H](CCCNC(=N)N)C(=O)NC(C)(C)C(=O)N[C@@H](C)C(=O)N[C@@H](CCC(N)=O)C(=O)NC(C)(C)C(=O)N[C@@H](CCCCNC(=O)COCCOCCNC(=O)COCCOCCNC(=O)CC[C@H](NC(=O)CC[C@H](NC(=O)CCCCCCCCCCCCCCCCC(=O)O)C(=O)O)C(=O)O)C(=O)N[C@@H](Cc1ccccc1)C(=O)N[C@H](C(=O)N[C@@H](CC(N)=O)C(=O)N[C@@H](Cc1c[nH]c2ccccc12)C(=O)N[C@@H](CC(C)C)C(=O)N[C@@H](CC(C)C)C(=O)N[C@@H](C)C(=O)N[C@@H](CCC(N)=O)C(=O)N[C@@H](CO)C(=O)N1CCC[C@H]1C(=O)NCC(=O)O)C(C)C [Compound 86] (H-[NMeY][Aib]EGTFISDYSIALDR[Aib]AQ[Aib]K([AEEA-AEEA-γGlu-γGlu-C18 diacid])FVNWLLAQSPG-OH) | ≥ 15 mg/mL | ≥ 30 mg/mL |  | 
3 | CC[C@H](C)[C@H](NC(=O)[C@H](Cc1ccccc1)NC(=O)[C@@H](NC(=O)CNC(=O)[C@H](CCC(=O)O)NC(=O)C(C)(C)NC(=O)[C@H](Cc1ccc(O)cc1)NC)[C@@H](C)O)C(=O)N[C@@H](CO)C(=O)N[C@@H](CC(=O)O)C(=O)N[C@@H](Cc1ccc(O)cc1)C(=O)N[C@@H](CO)C(=O)N[C@H](C(=O)NC(C)(C)C(=O)N[C@@H](CC(C)C)C(=O)N[C@@H](CC(=O)O)C(=O)N[C@@H](CCCNC(=N)N)C(=O)NC(C)(C)C(=O)N[C@@H](CCCCNC(=O)COCCOCCNC(=O)COCCOCCNC(=O)CC[C@H](NC(=O)CC[C@H](NC(=O)CCCCCCCCCCCCCCCCC(=O)O)C(=O)O)C(=O)O)C(=O)N[C@@H](CCC(N)=O)C(=O)NC(C)(C)C(=O)N[C@@H](CC(=O)O)C(=O)N[C@@H](Cc1ccccc1)C(=O)N[C@H](C(=O)N[C@@H](CC(N)=O)C(=O)N[C@@H](Cc1c[nH]c2ccccc12)C(=O)N[C@@H](CC(C)C)C(=O)N[C@@H](CC(C)C)C(=O)N[C@@H](C)C(=O)N[C@@H](CCC(N)=O)C(=O)N[C@@H](CO)C(=O)N1CCC[C@H]1C(=O)NCC(=O)O)C(C)C)[C@@H](C)CC [Compound 87] (H-[NMeY][Aib]EGTFISDYSI[Aib]LDR[Aib]K([AEEA-AEEA-γGlu-γGlu-C18 diacid])Q[Aib]DFVNWLLAQSPG-OH) | ≥ 15 mg/mL | ≥ 30 mg/mL |  | 
4 | CC[C@H](C)[C@H](NC(=O)[C@H](Cc1ccccc1)NC(=O)[C@@H](NC(=O)CNC(=O)[C@H](CCC(=O)O)NC(=O)C(C)(C)NC(=O)[C@H](Cc1ccc(O)cc1)NC)[C@@H](C)O)C(=O)N[C@@H](CO)C(=O)N[C@@H](CC(=O)O)C(=O)N[C@@H](Cc1ccc(O)cc1)C(=O)N[C@@H](CO)C(=O)N[C@H](C(=O)NC(C)(C)C(=O)N[C@@H](CC(C)C)C(=O)N[C@@H](CC(=O)O)C(=O)N[C@@H](CCCNC(=N)N)C(=O)NC(C)(C)C(=O)N[C@@H](C)C(=O)N[C@@H](CCC(N)=O)C(=O)NC(C)(C)C(=O)N[C@@H](CCCCNC(=O)COCCOCCNC(=O)COCCOCCNC(=O)CC[C@H](NC(=O)CC[C@H](NC(=O)CCCCCCCCCCCCCCCCC(=O)O)C(=O)O)C(=O)O)C(=O)N[C@@H](Cc1ccccc1)C(=O)N[C@H](C(=O)N[C@@H](CC(N)=O)C(=O)N[C@@H](Cc1c[nH]c2ccccc12)C(=O)N[C@@H](CC(C)C)C(=O)N[C@@H](CC(C)C)C(=O)N[C@@H](C)C(=O)N[C@@H](CCC(N)=O)C(=O)N[C@@H](CCCNC(=N)N)C(=O)N1CCC[C@H]1C(=O)N[C@@H](CO)C(=O)N[C@@H](CO)C(=O)NCC(=O)N[C@@H](C)C(=O)N1CCC[C@H]1C(=O)N1CCC[C@H]1C(=O)N1CCC[C@H]1C(=O)N[C@@H](CO)C(N)=O)C(C)C)[C@@H](C)CC [Compound 89] (H-[NMeY][Aib]EGTFISDYSI[Aib]LDR[Aib]AQ[Aib]K([AEEA-AEEA-γGlu-γGlu-C18 diacid])FVNWLLAQRPSSGAPPPS-NH2) |  |  | ≥ 60 mg/mL | ≥ 15 mg/mL
5 | CC[C@H](C)[C@H](NC(=O)[C@H](Cc1ccccc1)NC(=O)[C@@H](NC(=O)CNC(=O)[C@H](CCC(=O)O)NC(=O)C(C)(C)NC(=O)[C@H](Cc1ccc(O)cc1)NC)[C@@H](C)O)C(=O)N[C@@H](CO)C(=O)N[C@@H](CC(=O)O)C(=O)N[C@@H](Cc1ccc(O)cc1)C(=O)N[C@@H](CO)C(=O)N[C@H](C(=O)NC(C)(C)C(=O)N[C@@H](CC(C)C)C(=O)N[C@@H](CC(=O)O)C(=O)N[C@@H](CCCNC(=N)N)C(=O)NC(C)(C)C(=O)N[C@@H](C)C(=O)N[C@@H](CCC(N)=O)C(=O)NC(C)(C)C(=O)N[C@@H](CCCCNC(=O)COCCOCCNC(=O)COCCOCCNC(=O)CC[C@H](NC(=O)CC[C@H](NC(=O)CCCCCCCCCCCCCCCCC(=O)O)C(=O)O)C(=O)O)C(=O)N[C@@H](Cc1ccccc1)C(=O)N[C@H](C(=O)N[C@@H](CC(N)=O)C(=O)N[C@@H](Cc1c[nH]c2ccccc12)C(=O)N[C@@H](CC(C)C)C(=O)N[C@@H](CC(C)C)C(=O)N[C@@H](C)C(=O)N[C@@H](CCC(N)=O)C(=O)N[C@@H](CO)C(=O)N1CCC[C@H]1C(=O)N[C@@H](CO)C(=O)N[C@@H](CO)C(=O)NCC(=O)N[C@@H](C)C(=O)N1CCC[C@H]1C(=O)N1CCC[C@H]1C(=O)N1CCC[C@H]1C(=O)N[C@@H](CO)C(N)=O)C(C)C)[C@@H](C)CC [Compound 90] (H-[NMeY][Aib]EGTFISDYSI[Aib]LDR[Aib]AQ[Aib]K([AEEA-AEEA-γGlu-γGlu-C18 diacid])FVNWLLAQSPSSGAPPPS-NH2) |  |  | ≥ 60 mg/mL | ≥ 15 mg/mL
6 | CC[C@H](C)[C@H](NC(=O)[C@H](Cc1ccccc1)NC(=O)[C@@H](NC(=O)CNC(=O)[C@H](CCC(=O)O)NC(=O)C(C)(C)NC(=O)[C@H](Cc1ccc(O)cc1)NC)[C@@H](C)O)C(=O)N[C@@H](CO)C(=O)N[C@@H](CC(=O)O)C(=O)N[C@@H](Cc1ccc(O)cc1)C(=O)N[C@@H](CO)C(=O)N[C@H](C(=O)NC(C)(C)C(=O)N[C@@H](CC(C)C)C(=O)N[C@@H](CC(=O)O)C(=O)N[C@@H](CCCNC(=N)N)C(=O)NC(C)(C)C(=O)N[C@@H](C)C(=O)N[C@@H](CCC(N)=O)C(=O)NC(C)(C)C(=O)N[C@@H](CCCCNC(=O)COCCOCCNC(=O)COCCOCCNC(=O)CC[C@H](NC(=O)CCCCCCCCCCCCCCCCC(=O)O)C(=O)O)C(=O)N[C@@H](Cc1ccccc1)C(=O)N[C@H](C(=O)N[C@@H](CC(N)=O)C(=O)N[C@@H](Cc1c[nH]c2ccccc12)C(=O)N[C@@H](CC(C)C)C(=O)N[C@@H](CC(C)C)C(=O)N[C@@H](C)C(=O)N[C@@H](CCC(N)=O)C(=O)N[C@@H](CO)C(=O)N1CCC[C@H]1C(=O)N[C@@H](CO)C(=O)N[C@@H](CO)C(=O)NCC(=O)N[C@@H](C)C(=O)N1CCC[C@H]1C(=O)N1CCC[C@H]1C(=O)N1CCC[C@H]1C(=O)N[C@@H](CO)C(N)=O)C(C)C)[C@@H](C)CC [Compound 91] (H-[NMeY][Aib]EGTFISDYSI[Aib]LDR[Aib]AQ[Aib]K([AEEA-AEEA-γGlu-C18 diacid])FVNWLLAQSPSSGAPPPS-NH2) |  |  | ≥ 60 mg/mL | ≥ 15 mg/mL
7 | CC[C@H](C)[C@H](NC(=O)[C@H](Cc1ccccc1)NC(=O)[C@@H](NC(=O)CNC(=O)[C@H](CCC(=O)O)NC(=O)C(C)(C)NC(=O)[C@H](Cc1ccc(O)cc1)NC)[C@@H](C)O)C(=O)N[C@@H](CO)C(=O)N[C@@H](CC(=O)O)C(=O)N[C@@H](Cc1ccc(O)cc1)C(=O)N[C@@H](CO)C(=O)N[C@H](C(=O)NC(C)(C)C(=O)N[C@@H](CC(C)C)C(=O)N[C@@H](CC(=O)O)C(=O)N[C@@H](CCCNC(=N)N)C(=O)NC(C)(C)C(=O)N[C@@H](C)C(=O)N[C@@H](CCC(N)=O)C(=O)NC(C)(C)C(=O)N[C@@H](CCCCNC(=O)COCCOCCNC(=O)CC[C@H](NC(=O)COCCOCCNC(=O)CC[C@H](NC(=O)CCCCCCCCCCCCCCCCC(=O)O)C(=O)O)C(=O)O)C(=O)N[C@@H](Cc1ccccc1)C(=O)N[C@H](C(=O)N[C@@H](CC(N)=O)C(=O)N[C@@H](Cc1c[nH]c2ccccc12)C(=O)N[C@@H](CC(C)C)C(=O)N[C@@H](CC(C)C)C(=O)N[C@@H](C)C(=O)N[C@@H](CCC(N)=O)C(=O)N[C@@H](CO)C(=O)N1CCC[C@H]1C(=O)N[C@@H](CO)C(=O)N[C@@H](CO)C(=O)NCC(=O)N[C@@H](C)C(=O)N1CCC[C@H]1C(=O)N1CCC[C@H]1C(=O)N1CCC[C@H]1C(=O)N[C@@H](CO)C(N)=O)C(C)C)[C@@H](C)CC [Compound 92] (H-[NMeY][Aib]EGTFISDYSI[Aib]LDR[Aib]AQ[Aib]K([AEEA-γGlu-AEEA-γGlu-C18 diacid])FVNWLLAQSPSSGAPPPS-NH2) |  |  | ≥ 60 mg/mL | ≥ 15 mg/mL
